Measurements as given in ChEMBL document CHEMBL1909294, “Translating clinical findings into knowledge in drug safety evaluation--drug induced liver injury prediction system (DILIps)” (PLoS Comput Biol, 2011).

Tests used:
Hepatotoxicity [1] = test system: Hepatotoxicity;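 on HepSE bilirubinemia: bilirubinemia hepatic side effect score drawn from the DILIps training data, a prediction system for drug-induced liver injury; call rule not given here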;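 on HepSE cholecystitis: Cholecystitis-related hepatic side effect score drawn from the DILIps (drug-induced liver injury prediction) training data set; call rule not given here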;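 on HepSE cholelithiasis: hepatic side effect score for cholelithiasis, drawn from the DILIps training data for predicting drug-induced liver injury; call rule not given here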;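 on HepSE cirrhosis: cirrhosis hepatic side effect score taken from the DILIps (drug-induced liver injury prediction) training set; call rule not given here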;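 on HepSE elevated liver function tests: hepatic side effect score for raised liver function tests, as recorded in the DILIps training set used for predicting drug-induced liver injury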; on HepSE hepatic failure: call rule not given here;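 on HepSE hepatomegaly: hepatic side effect score for hepatomegaly, taken from the training set of the DILIps drug-induced liver injury prediction system; call rule not given here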
Hepatotoxicity [2] = test system: Hepatotoxicity; remark: listed apart in the source;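 on HepSE bilirubinemia: bilirubinemia hepatic side effect score drawn from the DILIps training data, a prediction system for drug-induced liver injury; call rule not given here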;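 on HepSE cholecystitis: Cholecystitis-related hepatic side effect score drawn from the DILIps (drug-induced liver injury prediction) training data set; call rule not given here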;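 on HepSE cholelithiasis: hepatic side effect score for cholelithiasis, drawn from the DILIps training data for predicting drug-induced liver injury; call rule not given here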;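 on HepSE cirrhosis: cirrhosis hepatic side effect score taken from the DILIps (drug-induced liver injury prediction) training set; call rule not given here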;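 on HepSE elevated liver function tests: hepatic side effect score for raised liver function tests, as recorded in the DILIps training set used for predicting drug-induced liver injury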; on HepSE hepatic failure: call rule not given here;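 on HepSE hepatomegaly: hepatic side effect score for hepatomegaly, taken from the training set of the DILIps drug-induced liver injury prediction system; call rule not given here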
Hepatotoxicity [3] = test system: Hepatotoxicity; remark: listed apart in the source;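 on HepSE bilirubinemia: bilirubinemia hepatic side effect score drawn from the DILIps training data, a prediction system for drug-induced liver injury; call rule not given here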;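 on HepSE cholecystitis: Cholecystitis-related hepatic side effect score drawn from the DILIps (drug-induced liver injury prediction) training data set; call rule not given here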;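 on HepSE cholelithiasis: hepatic side effect score for cholelithiasis, drawn from the DILIps training data for predicting drug-induced liver injury; call rule not given here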;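 on HepSE cirrhosis: cirrhosis hepatic side effect score taken from the DILIps (drug-induced liver injury prediction) training set; call rule not given here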;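 on HepSE elevated liver function tests: hepatic side effect score for raised liver function tests, as recorded in the DILIps training set used for predicting drug-induced liver injury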; on HepSE hepatic failure: call rule not given here
Hepatotoxicity [4] = test system: Hepatotoxicity; remark: listed apart in the source;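 on HepSE bilirubinemia: bilirubinemia hepatic side effect score drawn from the DILIps training data, a prediction system for drug-induced liver injury; call rule not given here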;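 on HepSE cholecystitis: Cholecystitis-related hepatic side effect score drawn from the DILIps (drug-induced liver injury prediction) training data set; call rule not given here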;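 on HepSE cholelithiasis: hepatic side effect score for cholelithiasis, drawn from the DILIps training data for predicting drug-induced liver injury; call rule not given here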;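 on HepSE cirrhosis: cirrhosis hepatic side effect score taken from the DILIps (drug-induced liver injury prediction) training set; call rule not given here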;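 on HepSE elevated liver function tests: hepatic side effect score for raised liver function tests, as recorded in the DILIps training set used for predicting drug-induced liver injury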; on HepSE hepatic failure: call rule not given here
Hepatotoxicity [5] = test system: Hepatotoxicity; remark: listed apart in the source; on HepSE hepatic failure: call rule not given here
Hepatotoxicity [6] = test system: Hepatotoxicity; remark: listed apart in the source; on HepSE hepatic failure: call rule not given here
Hepatotoxicity [7] = test system: Hepatotoxicity; remark: listed apart in the source
Hepatotoxicity [8] = test system: Hepatotoxicity; remark: listed apart in the source
Hepatotoxicity [9] = test system: Hepatotoxicity; remark: listed apart in the source
Hepatotoxicity [10] = test system: Hepatotoxicity; remark: listed apart in the source
Hepatotoxicity [11] = test system: Hepatotoxicity; remark: listed apart in the source
Hepatotoxicity [12] = test system: Hepatotoxicity; remark: listed apart in the source
Hepatotoxicity [13] = test system: Hepatotoxicity; remark: listed apart in the source
Hepatotoxicity [14] = test system: Hepatotoxicity; remark: listed apart in the source

Row | SMILES | HepSE_bilirubinemia (Hepatotoxicity [1]) | HepSE_cholecystitis (Hepatotoxicity [2]) | HepSE_cholelithiasis (Hepatotoxicity [3]) | HepSE_cirrhosis (Hepatotoxicity [4]) | HepSE_elevated liver function tests (Hepatotoxicity [5]) | HepSE_hepatic failure (Hepatotoxicity [6]) | HepSE_hepatic necrosis (Hepatotoxicity [7]) | HepSE_hepatitis (Hepatotoxicity [8]) | HepSE_hepatomegaly (Hepatotoxicity [9]) | HepSE_jaundice (Hepatotoxicity [10]) | HepSE_liver disease (Hepatotoxicity [11]) | HepSE_liver fatty (Hepatotoxicity [12]) | HepSE_liver function tests abnormal (Hepatotoxicity [13]) | HepSE_Combined Scores (Hepatotoxicity [14]) | further results
1 | CN1CCN(C2=Nc3cc(Cl)ccc3Nc3ccccc32)CC1 [CLOZAPINE] | 0 | 0 | 0 | 0 | 0 | 0 | 0 | 1 | 0 | 1 | 0 | 0 | 0 | 2 | –
2 | CC(C)[C@H](N)C(=O)OCC(CO)OCn1cnc2c(=O)nc(N)[nH]c21 (some centres not stated) [VALGANCICLOVIR] | 0 | 0 | 0 | 0 | 0 | 0 | 0 | 1 | 0 | 1 | 0 | 0 | 0 | 2 | –
3 | CC(C)NCC(O)COc1cccc2[nH]ccc12 (configuration not stated) [PINDOLOL] | 0 | 0 | 0 | 0 | 0 | 0 | 0 | 0 | 0 | 0 | 0 | 0 | 0 | 0 | –
4 | NNc1nncc2ccccc12 [HYDRALAZINE] | – | – | – | – | – | – | – | – | – | – | – | – | – | – | HepSE_bilirubinemia (Hepatotoxicity [1]; Liver): 0; HepSE_cholecystitis (Hepatotoxicity [2]; Liver): 0; HepSE_cholelithiasis (Hepatotoxicity [3]; Liver): 0; HepSE_cirrhosis (Hepatotoxicity [4]; Liver): 0; HepSE_elevated liver function tests (Hepatotoxicity [5]; Liver): 0; HepSE_hepatic failure (Hepatotoxicity [6]; Liver): 0; HepSE_hepatic necrosis (Hepatotoxicity [7]; Liver): 0; HepSE_hepatitis (Hepatotoxicity [8]; Liver): 1; HepSE_hepatomegaly (Hepatotoxicity [9]; Liver): 0; HepSE_jaundice (Hepatotoxicity [10]; Liver): 0; HepSE_liver disease (Hepatotoxicity [11]; Liver): 0; HepSE_liver fatty (Hepatotoxicity [12]; Liver): 0; HepSE_liver function tests abnormal (Hepatotoxicity [13]; Liver): 0; HepSE_Combined Scores (Hepatotoxicity [14]; Liver): 1
5 | OCCOCCN1CCN(C(c2ccccc2)c2ccc(Cl)cc2)CC1 (configuration not stated) [HYDROXYZINE] | 0 | 0 | 0 | 0 | 0 | 0 | 0 | 0 | 0 | 0 | 0 | 0 | 0 | 0 | –
6 | Nc1ccc(C(=O)NCC(=O)O)cc1 [AMINOHIPPURIC ACID] | 0 | 0 | 0 | 0 | 0 | 0 | 0 | 0 | 0 | 0 | 0 | 0 | 0 | 0 | –
7 | CCCCS(=O)(=O)N[C@@H](Cc1ccc(OCCCCC2CCNCC2)cc1)C(=O)O [TIROFIBAN] | – | – | – | – | – | – | – | – | – | – | – | – | – | – | HepSE_bilirubinemia (Hepatotoxicity [1]; Liver): 0; HepSE_cholecystitis (Hepatotoxicity [2]; Liver): 0; HepSE_cholelithiasis (Hepatotoxicity [3]; Liver): 0; HepSE_cirrhosis (Hepatotoxicity [4]; Liver): 0; HepSE_elevated liver function tests (Hepatotoxicity [5]; Liver): 0; HepSE_hepatic failure (Hepatotoxicity [6]; Liver): 0; HepSE_hepatic necrosis (Hepatotoxicity [7]; Liver): 0; HepSE_hepatitis (Hepatotoxicity [8]; Liver): 0; HepSE_hepatomegaly (Hepatotoxicity [9]; Liver): 0; HepSE_jaundice (Hepatotoxicity [10]; Liver): 0; HepSE_liver disease (Hepatotoxicity [11]; Liver): 0; HepSE_liver fatty (Hepatotoxicity [12]; Liver): 0; HepSE_liver function tests abnormal (Hepatotoxicity [13]; Liver): 0; HepSE_Combined Scores (Hepatotoxicity [14]; Liver): 0
8 | OC(c1cc(C(F)(F)F)nc2c(C(F)(F)F)cccc12)C1CCCCN1 (configuration not stated) [MEFLOQUINE] | 0 | 0 | 0 | 0 | 0 | 0 | 0 | 0 | 0 | 0 | 0 | 0 | 0 | 0 | –
9 | CCOC(=O)c1cncn1[C@H](C)c1ccccc1 [ETOMIDATE] | 0 | 0 | 0 | 0 | 0 | 0 | 0 | 0 | 0 | 0 | 0 | 0 | 0 | 0 | –
10 | C[C@](N)(Cc1ccc(O)c(O)c1)C(=O)O [METHYLDOPA] | 0 | 0 | 0 | 0 | 0 | 0 | 0 | 1 | 0 | 1 | 0 | 0 | 1 | 3 | –
11 | CC1(C)S[C@@H]2[C@H](NC(=O)Cc3ccccc3)C(=O)N2[C@H]1C(=O)O [PENICILLIN G] | 0 | 0 | 0 | 0 | 0 | 0 | 0 | 0 | 0 | 0 | 0 | 0 | 0 | 0 | –
12 | NC[C@@H]1O[C@H](O[C@H]2[C@@H](O)[C@H](O[C@@H]3[C@@H](O)[C@H](N)C[C@H](N)[C@H]3O[C@H]3O[C@H](CO)[C@@H](O)[C@H](O)[C@H]3N)O[C@@H]2CO)[C@H](N)[C@@H](O)[C@@H]1O [PAROMOMYCIN] | 0 | 0 | 0 | 0 | 0 | 0 | 0 | 0 | 0 | 0 | 0 | 0 | 0 | 0 | –
13 | NC(=O)N1c2ccccc2C=Cc2ccccc21 [CARBAMAZEPINE] | 0 | 0 | 0 | 0 | 0 | 1 | 0 | 1 | 0 | 1 | 0 | 0 | 1 | 4 | –
